Tests used:
[1] = target: Human AT1 (Homo sapiens, UniProt P30556); experiment: Radioligand binding: Human AT1
[2] = both, human, in vivo, 0.5 mg
[3] = target: human Nav1.5 (Homo sapiens, UniProt Q14524); experiment: Whole cell voltage-clamp, cardiac sodium current; conditions: 3 μM for 3 min, n = 3 cells
[4] = target: Human 5-HT2C (Homo sapiens, UniProt P28335); experiment: Radioligand binding: Human 5-HT2C
[5] = target: Human CB1 (Homo sapiens, UniProt P21554); experiment: Radioligand binding: Human CB1
[6] = test system: canine antrum, duodenum, and jejunum; experiment: Dog gastrointestinal contractility; format: in vivo; conditions: oral, conscious fasted dogs
[7] = test system: rat Nav1.2; experiment: Whole cell voltage-clamp, neuronal sodium current; conditions: 3 μM for 3 min, n = 3 cells
[8] = target: Human 5-HT5a (Homo sapiens, UniProt P47898); experiment: Radioligand binding: Human 5-HT5a
[9] = target: Rat PACAP (PAC1) (Rattus norvegicus, UniProt P32215); experiment: Radioligand binding: Rat PACAP
[10] = target: Human COX2 (Homo sapiens, UniProt P35354); experiment: Enzyme inhibition: Human COX2
[11] = target: Rat Ca2+ channel (L, DHP site); experiment: Radioligand binding: Rat Ca2+ channel; conditions: [3H]-(+)PN 200-110 0.04 nM
[12] = target: Human CCK2 (CCKB) (Homo sapiens, UniProt P32239); experiment: Radioligand binding: Human CCK2
[13] = target: Human 5-HT2B (Homo sapiens, UniProt P41595); experiment: Radioligand binding: Human 5-HT2B
[14] = target: Human 5-HT2A (Homo sapiens, UniProt P28223); experiment: Radioligand binding: Human 5-HT2A
[15] = target: Rat Ca2+ channel (L, verapamil site); experiment: Radioligand binding: Rat Ca2+ channel; conditions: [3H]-(−)D 888 0.5 nM
[16] = target: Human NK3 (Homo sapiens, UniProt P29371); experiment: Radioligand binding: Human NK3
[17] = target: Human ETB (Homo sapiens, UniProt P24530); experiment: Radioligand binding: Human ETB
[18] = target: Rat NMDA (Rattus norvegicus, UniProt Q00959); experiment: Radioligand binding: Rat NMDA; conditions: read-out: % Inhibition of specific binding (1 μM)
[19] = target: Human 5-HT3a (Homo sapiens, UniProt P46098); experiment: Radioligand binding: Human 5-HT3a
[20] = target: Human δ2 (Homo sapiens, UniProt P41143); experiment: Radioligand binding: Human δ2 opiate receptor
[21] = target: Human 5-HT6 (Homo sapiens, UniProt P50406); experiment: Radioligand binding: Human 5-HT6
[22] = target: K+V channel; format: binding; conditions: [125I]-α-dendrotoxin 0.01 nM
[23] = target: Rat galanin (non-selective); experiment: Radioligand binding: Rat galanin; conditions: [125I]-galanin 0.05 nM
[24] = target: Human D4.4 (Homo sapiens, UniProt P21917); experiment: Radioligand binding: Human D4.4
[25] = test system: Human PDE4; experiment: Enzyme inhibition: Human PDE4; conditions: [3H]-cAMP + cAMP 1 μM, TD-8954 1 μM
[26] = target: Human norepinephrine transporter (Homo sapiens, UniProt P23975); experiment: Radioligand binding: Human norepinephrine transporter
[27] = target: Human acetylcholinesterase (Homo sapiens, UniProt P22303); experiment: Enzyme inhibition: Human acetylcholinesterase
[28] = target: Human 5-HT1A (Homo sapiens, UniProt P08908); experiment: Radioligand binding: Human 5-HT1A
[29] = target: Rat dopamine transporter (Rattus norvegicus, UniProt P23977); experiment: Radioligand binding: Rat dopamine transporter
[30] = target: Rat Ca2+ channel (N) (Rattus norvegicus, UniProt Q02294); experiment: biochemical; format: binding
[31] = target: Human Y2 (Homo sapiens, UniProt P49146); experiment: Radioligand binding: Human Y2
[32] = target: Human ETA (Homo sapiens, UniProt P25101); experiment: Radioligand binding: Human ETA
[33] = target: Human M1 (Homo sapiens, UniProt P11229); experiment: Radioligand binding: Human M1
[34] = target: Human motilin (Homo sapiens, UniProt O43193); experiment: Radioligand binding: Human motilin
[35] = read-out: % Inhibition of specific binding (1 μM)
[36] = read-out: % Inhibition of control (1 μM)

Chain of Human COX2 (P35354 18-604): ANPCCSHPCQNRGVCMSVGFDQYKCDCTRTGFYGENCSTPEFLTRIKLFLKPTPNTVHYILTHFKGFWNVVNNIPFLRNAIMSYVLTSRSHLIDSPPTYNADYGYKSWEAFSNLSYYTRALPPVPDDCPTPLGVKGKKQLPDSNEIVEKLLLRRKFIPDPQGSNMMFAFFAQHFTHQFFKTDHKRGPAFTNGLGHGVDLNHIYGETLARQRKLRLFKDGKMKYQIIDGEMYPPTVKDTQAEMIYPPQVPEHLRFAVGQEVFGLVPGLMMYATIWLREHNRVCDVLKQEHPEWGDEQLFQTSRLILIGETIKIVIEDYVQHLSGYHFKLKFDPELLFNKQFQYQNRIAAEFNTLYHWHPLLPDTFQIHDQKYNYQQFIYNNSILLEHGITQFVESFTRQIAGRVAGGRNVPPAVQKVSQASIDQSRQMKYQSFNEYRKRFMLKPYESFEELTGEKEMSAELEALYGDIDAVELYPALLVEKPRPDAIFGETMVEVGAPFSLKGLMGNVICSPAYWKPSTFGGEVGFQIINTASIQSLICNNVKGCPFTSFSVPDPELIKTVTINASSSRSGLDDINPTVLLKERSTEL
Chain of Human acetylcholinesterase (P22303 32-614): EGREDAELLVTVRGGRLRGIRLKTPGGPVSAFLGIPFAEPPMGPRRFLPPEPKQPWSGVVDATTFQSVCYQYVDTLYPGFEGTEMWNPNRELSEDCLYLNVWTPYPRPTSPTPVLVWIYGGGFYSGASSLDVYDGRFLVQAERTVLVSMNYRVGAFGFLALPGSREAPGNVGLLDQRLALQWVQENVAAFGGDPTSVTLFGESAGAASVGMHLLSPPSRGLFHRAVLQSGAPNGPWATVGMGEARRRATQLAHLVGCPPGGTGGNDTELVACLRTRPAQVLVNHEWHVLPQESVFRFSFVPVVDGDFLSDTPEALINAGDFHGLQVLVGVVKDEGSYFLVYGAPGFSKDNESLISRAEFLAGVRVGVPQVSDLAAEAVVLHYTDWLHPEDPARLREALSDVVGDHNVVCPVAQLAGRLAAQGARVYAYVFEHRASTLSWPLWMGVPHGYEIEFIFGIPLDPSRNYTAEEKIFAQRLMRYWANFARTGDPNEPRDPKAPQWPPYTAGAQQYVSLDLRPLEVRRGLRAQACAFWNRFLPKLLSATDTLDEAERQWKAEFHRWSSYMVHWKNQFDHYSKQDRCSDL
Chain of Human D4.4 (P21917 whole entry): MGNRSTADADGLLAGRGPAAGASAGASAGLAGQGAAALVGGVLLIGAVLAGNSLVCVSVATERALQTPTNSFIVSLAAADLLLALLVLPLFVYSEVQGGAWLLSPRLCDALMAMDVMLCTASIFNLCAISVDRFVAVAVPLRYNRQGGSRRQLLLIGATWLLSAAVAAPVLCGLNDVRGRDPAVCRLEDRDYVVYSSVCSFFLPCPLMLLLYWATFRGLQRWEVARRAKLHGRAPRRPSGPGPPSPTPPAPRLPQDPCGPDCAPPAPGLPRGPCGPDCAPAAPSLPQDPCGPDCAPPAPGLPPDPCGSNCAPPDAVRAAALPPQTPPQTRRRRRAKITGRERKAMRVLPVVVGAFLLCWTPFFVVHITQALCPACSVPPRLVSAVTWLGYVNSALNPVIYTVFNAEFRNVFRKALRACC
Chain of Rat PACAP (PAC1) (P32215 20-523): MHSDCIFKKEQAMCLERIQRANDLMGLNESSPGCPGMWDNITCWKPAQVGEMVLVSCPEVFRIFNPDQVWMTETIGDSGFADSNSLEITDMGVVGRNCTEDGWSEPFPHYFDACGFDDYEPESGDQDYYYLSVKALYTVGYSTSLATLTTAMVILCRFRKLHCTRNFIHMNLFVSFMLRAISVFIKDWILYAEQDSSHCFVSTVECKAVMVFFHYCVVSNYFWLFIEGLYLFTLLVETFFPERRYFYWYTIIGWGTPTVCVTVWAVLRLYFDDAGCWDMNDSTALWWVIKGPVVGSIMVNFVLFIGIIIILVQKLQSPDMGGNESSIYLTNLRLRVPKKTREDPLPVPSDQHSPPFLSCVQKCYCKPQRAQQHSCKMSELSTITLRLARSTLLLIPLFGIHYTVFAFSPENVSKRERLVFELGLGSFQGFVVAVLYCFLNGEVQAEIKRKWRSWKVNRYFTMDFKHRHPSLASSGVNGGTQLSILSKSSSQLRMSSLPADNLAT
Chain of Human norepinephrine transporter (P23975 whole entry): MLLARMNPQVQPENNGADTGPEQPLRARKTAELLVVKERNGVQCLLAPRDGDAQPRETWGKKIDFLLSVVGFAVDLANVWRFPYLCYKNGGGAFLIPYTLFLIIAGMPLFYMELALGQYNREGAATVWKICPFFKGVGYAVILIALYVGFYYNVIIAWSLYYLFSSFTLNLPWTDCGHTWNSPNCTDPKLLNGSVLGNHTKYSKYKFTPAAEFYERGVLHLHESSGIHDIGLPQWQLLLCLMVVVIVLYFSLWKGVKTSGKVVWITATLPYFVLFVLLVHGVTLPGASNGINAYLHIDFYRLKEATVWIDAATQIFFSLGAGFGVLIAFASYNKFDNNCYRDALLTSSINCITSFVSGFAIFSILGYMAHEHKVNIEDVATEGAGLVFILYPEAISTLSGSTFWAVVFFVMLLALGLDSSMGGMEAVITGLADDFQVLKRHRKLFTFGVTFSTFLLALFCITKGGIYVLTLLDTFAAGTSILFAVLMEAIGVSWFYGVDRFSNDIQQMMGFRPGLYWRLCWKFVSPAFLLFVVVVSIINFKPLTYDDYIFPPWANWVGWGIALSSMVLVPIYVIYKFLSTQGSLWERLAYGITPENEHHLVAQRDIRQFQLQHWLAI
Chain of Human NK3 (P29371 whole entry): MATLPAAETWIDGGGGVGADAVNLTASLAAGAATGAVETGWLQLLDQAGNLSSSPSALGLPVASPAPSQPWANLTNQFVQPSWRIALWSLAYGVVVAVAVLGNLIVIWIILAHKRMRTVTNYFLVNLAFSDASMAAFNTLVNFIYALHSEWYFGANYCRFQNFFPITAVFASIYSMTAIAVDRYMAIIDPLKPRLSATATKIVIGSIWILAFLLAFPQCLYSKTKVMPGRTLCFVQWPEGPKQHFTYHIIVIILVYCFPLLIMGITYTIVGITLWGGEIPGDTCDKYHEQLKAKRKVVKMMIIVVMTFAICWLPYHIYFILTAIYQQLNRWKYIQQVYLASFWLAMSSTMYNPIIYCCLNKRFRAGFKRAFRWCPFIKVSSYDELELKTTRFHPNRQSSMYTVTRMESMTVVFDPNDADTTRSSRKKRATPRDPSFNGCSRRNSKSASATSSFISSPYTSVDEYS
Chain of Rat dopamine transporter (P23977 whole entry): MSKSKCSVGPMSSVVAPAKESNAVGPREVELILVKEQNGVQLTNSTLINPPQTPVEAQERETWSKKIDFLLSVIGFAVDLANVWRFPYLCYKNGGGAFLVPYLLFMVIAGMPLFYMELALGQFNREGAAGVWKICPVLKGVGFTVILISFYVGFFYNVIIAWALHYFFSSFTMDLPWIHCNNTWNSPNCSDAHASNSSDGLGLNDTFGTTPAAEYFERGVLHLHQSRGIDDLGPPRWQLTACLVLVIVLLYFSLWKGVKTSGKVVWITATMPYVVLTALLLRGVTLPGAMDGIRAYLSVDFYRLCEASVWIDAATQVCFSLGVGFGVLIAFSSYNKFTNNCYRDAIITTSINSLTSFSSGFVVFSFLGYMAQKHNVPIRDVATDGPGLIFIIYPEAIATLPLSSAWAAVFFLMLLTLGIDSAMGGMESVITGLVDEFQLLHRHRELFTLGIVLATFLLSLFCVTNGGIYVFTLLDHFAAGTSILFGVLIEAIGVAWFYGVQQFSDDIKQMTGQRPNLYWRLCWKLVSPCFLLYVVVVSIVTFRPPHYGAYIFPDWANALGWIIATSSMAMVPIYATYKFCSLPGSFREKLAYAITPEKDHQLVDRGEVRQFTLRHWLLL
Chain of Human ETB (P24530 27-442): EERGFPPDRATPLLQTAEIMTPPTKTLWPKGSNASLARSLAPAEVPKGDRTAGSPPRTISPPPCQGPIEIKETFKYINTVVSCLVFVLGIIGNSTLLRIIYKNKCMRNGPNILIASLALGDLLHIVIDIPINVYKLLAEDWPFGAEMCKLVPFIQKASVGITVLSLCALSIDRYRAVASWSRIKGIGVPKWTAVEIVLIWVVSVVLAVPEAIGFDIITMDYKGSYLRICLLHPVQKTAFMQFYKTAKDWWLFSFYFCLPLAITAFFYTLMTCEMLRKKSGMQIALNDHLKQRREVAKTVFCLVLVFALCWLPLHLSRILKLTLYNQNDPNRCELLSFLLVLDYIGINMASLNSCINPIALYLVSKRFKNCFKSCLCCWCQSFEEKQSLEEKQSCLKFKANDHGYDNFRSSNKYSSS
Chain of Human AT1 (P30556 whole entry): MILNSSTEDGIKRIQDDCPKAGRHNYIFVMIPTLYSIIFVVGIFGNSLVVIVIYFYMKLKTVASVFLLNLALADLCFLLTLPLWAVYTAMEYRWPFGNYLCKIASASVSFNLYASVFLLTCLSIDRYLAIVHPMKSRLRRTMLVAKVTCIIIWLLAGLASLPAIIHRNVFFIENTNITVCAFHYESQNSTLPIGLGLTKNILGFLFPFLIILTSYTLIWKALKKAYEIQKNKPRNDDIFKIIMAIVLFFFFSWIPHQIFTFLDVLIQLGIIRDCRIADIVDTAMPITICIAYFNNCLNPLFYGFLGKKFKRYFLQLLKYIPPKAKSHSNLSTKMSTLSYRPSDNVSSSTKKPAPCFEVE
Chain of Human Y2 (P49146 whole entry): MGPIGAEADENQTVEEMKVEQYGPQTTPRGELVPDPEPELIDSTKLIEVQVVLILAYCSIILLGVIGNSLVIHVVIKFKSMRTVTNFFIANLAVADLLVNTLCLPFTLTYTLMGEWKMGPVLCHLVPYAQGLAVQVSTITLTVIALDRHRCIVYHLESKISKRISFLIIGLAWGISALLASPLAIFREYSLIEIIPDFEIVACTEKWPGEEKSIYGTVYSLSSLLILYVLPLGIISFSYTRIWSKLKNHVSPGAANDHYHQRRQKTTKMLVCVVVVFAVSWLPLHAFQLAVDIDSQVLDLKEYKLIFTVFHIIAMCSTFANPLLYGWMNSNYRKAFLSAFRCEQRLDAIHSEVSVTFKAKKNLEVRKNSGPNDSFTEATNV

COC(=O)N1CCC(CN2CCC(CNC(=O)c3cccc4[nH]c(C(C)C)nc34)CC2)CC1 [TD-8954, 4-(4-{[(2-isopropyl-1H-benzoimidazole-4-carbonyl)amino]methyl}-piperidin-1-ylmethyl)piperidine-1-carboxylic acid methyl ester]
Ki [1]: > 1 µM
inhibition at 1 µM [1, 35]: 2%
free plasma AUC0–24 [2]: 36.2 nM/h
free plasma Cmax [2]: 3.4 nM/h
effect on magnitude of inward human Nav1.5 sodium current [3]: no effect
Ki [4]: > 1 µM
Ki [5]: > 1 µM
onset of contractile activity after dosing [6]: ≤ 10 min
effect on contractility in the antrum, duodenum, and jejunum ([6]; TD-8954 0.01 and 0.03 mg/kg, tegaserod 0.1 and 0.3 mg/kg): increases in contractility
effect on magnitude of inward rat Nav1.2a sodium current [7]: no effect
Ki [8]: > 1 µM
Ki [9]: > 1 µM
inhibition at 1 µM [9, 35]: -3%
IC50 [10]: > 1 µM
inhibition at 1 µM [10, 36]: -36%
pKi [11]: <6
Ki [12]: > 1 µM
inhibition at 1 µM [12, 35]: -1%
Ki [13]: > 1 µM
Ki [14]: > 1 µM
pKi [15]: <6
Ki [16]: > 1 µM
inhibition at 1 µM [16, 35]: -3%
Ki [17]: > 1 µM
inhibition at 1 µM [17, 35]: 5%
inhibition at 1 µM [18]: -6%
Ki [19]: > 100 µM
Ki [20]: > 1 µM
Ki [21]: > 1 µM
pKi [22]: <6
% Inhibition of specific binding (1 μM) ([22]; TD-8954 1 μM): −5%
pKi [23]: <6
% Inhibition of specific binding (1 μM) ([23]; TD-8954 1 μM): 1%
Ki [24]: > 1 µM
inhibition at 1 µM [24, 35]: 6%
% Inhibition of control (1 μM) [25]: −19%
Ki [26]: > 1 µM
inhibition at 1 µM [26, 35]: 6%
IC50 [27]: > 1 µM
inhibition at 1 µM [27, 36]: 2%
Ki [28]: > 1 µM
Ki [29]: > 1 µM
inhibition at 1 µM [29, 35]: 3%
Ki [30]: > 1 µM
Ki [31]: > 1 µM
inhibition at 1 µM [31, 35]: -5%
Ki [32]: > 1 µM
Ki [33]: > 1 µM
Ki [34]: > 1 µM

Source: article PMC3108484 (Frontiers in Pharmacology, 2011)
